This experiment deals with T1, BT_2972 (Bacteroides thetaiotaomicron, UniProt Q8A3I2).
T1 construct: 257 amino acids with noncleavable N-terminal (His)6 tag; pGS21a, E. coli BL21 (DE3); monomer in solution; first 12 residues disordered
Kind of experiment: isothermal titration calorimetry. Type of experiment: binding. As to conditions: 20 mM Tris-HCl pH 8.0, 200 mM NaCl, 24 °C; single-site model. On the technique in general: In ITC the heat of successive injections is recorded.

Each structure is given as a SMILES string. Marks after values point to notes of the source that are not given here.

T1 sequence (Q8A3I2 entry or part of it, change not shown): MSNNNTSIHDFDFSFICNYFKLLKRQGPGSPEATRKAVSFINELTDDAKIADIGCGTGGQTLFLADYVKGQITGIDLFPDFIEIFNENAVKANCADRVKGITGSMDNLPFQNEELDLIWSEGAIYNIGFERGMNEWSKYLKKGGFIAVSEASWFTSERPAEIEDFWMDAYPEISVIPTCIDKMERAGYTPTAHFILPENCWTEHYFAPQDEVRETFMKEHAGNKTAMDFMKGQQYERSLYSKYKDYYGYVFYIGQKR

In the case of `Nc1ncnc2c1ncn2[C@@H]1O[C@H](CSCC[C@H](N)C(=O)O)[C@@H](O)[C@H]1O` [AdoHcy], the Ka is recorded as 3.498×10^5 (±0.66×10^5).
As for `C[S+](CC[C@H](N)C(=O)O)C[C@H]1O[C@@H](n2cnc3c(N)ncnc32)[C@H](O)[C@@H]1O` (some centres unmarked) [AdoMet], the Ka is 0.395×10^5 (±0.0435×10^5).

For the origin of these results see publication PMC3225368, “A Conformational Switch in the Active Site of BT_2972, a Methyltransferase from an Antibiotic Resistant Pathogen B. thetaiotaomicron” (PLoS ONE, 2011).
